{"source": "patent US11369665B2", "about": "“Anti-inflammatory peptides and composition comprising the same” (GemVax & KAEL Co., Ltd., priority 2012, dated 2022)", "key": {"[1]": {"tested_on": "nitric oxide (NO)", "assay": "NO level analysis (Griess reagent) in LPS-stimulated Raw 264.7 cells", "assay_type": "cell-based", "procedure": "(§1) Raw 264.7 macrophage cell (KCBL, 40071) from Korea Cell Bank was maintained in Dulbecco's modified Eagle's medium (DMEM; PAA, Austria) containing 10% fetal bovine serum (FBS; GIBCO®), 100 unit/mL of streptomycin, and penicillin (Gibco Laboratories) at 37° C. with 5% CO2. Raw 264.7 cells were seeded into a 96-well plate at a density of 1×10^6 cells/mL and incubated overnight.\n[…] After 30 min incubation of cells with the peptide 50 μL of LPS (to a final concentration of 1 μg/mL) was added, and cells were incubated for additional 24 hr. The experimental sample with the induction of inflammatory response was treated with 1 μg/mL mL lipopolysaccharide (LPS; SIGMA-ALDRICH®, USA) and control sample was treated with phosphate buffered saline (PBS; pH 7.2). The supernatant samples from each condition was collected in eppendorf tubes and subjected to further analysis.\nThe level of nitric oxide (NO) was measured in Raw 264.7 cell (1×10^6 cell/ml) using Griess reagent system (PROMEGA CORPORATION®, USA). Culture medium of 50 μl was added to a 96-well plate and Griess reagent I (NED) solution and Griess reagent II (Sulfanilamide solution) are added in the same amount. After 10 min incubation of cells with the reagents, the optical density at 540 nm was measured within 30 min using a microplate reader (MOLECULAR DEVICES®, USA). The concentration of NO was calculated by using a standard curve (0˜100 μM) of sodium nitrite."}, "[2]": {"tested_on": "IL-6", "assay": "IL-6 secretion measurement by ELISA in LPS-challenged RAW 264.7 cells", "assay_type": "cell-based", "procedure": "as §1\nOn the following day, the medium was replaced with fresh medium and 5 μg/mL of peptide (obtained as described in Experiment example 1) was added to the cells. After 30 min incubation of cells with the peptide 50 μL of LPS (to a final concentration of 1 μg/mL) was added, and cells were incubated for additional 24 hr. The experimental sample with the induction of inflammatory response was treated with 1 μg/mL mL lipopolysaccharide (LPS; SIGMA-ALDRICH®, USA) and control sample was treated with phosphate buffered saline (PBS; pH 7.2). The supernatant samples from each condition was collected in eppendorf tubes and subjected to further analysis.\nTo investigate the effect of PEP-1 on inhibiting proinflammatory cytokine production RAW 264.7 cell were pre-treated with PEP 1 at a concentration of 5 μg/mL challenged with LPS at a concentration of 1 μg/mL, and cells were further incubated for 24 hr. The supernatant samples containing cell culture medium was collected and analyzed for the cytokine levels using ELISA kits (eBioscience, San Diego).\n96 wells plates were coated with 100 μL of capture antibodies (diluted in coating buffer to the concentration recommended by manufacturer's protocol) overnight at 4° C. Then, after washing the plates 5 times, 200 μL of assay diluents was added to each well and incubated for 1 hr at room temperature for blocking. […]\nFollowing incubation with the secondary antibody, the plate was washed five times and incubated with 100 μL of avidin-HRP (BD Bioscience) for 30 min at room temperature. […] The reaction was stopped by adding 50 μl of 2N H2SO4 in each well The optical density at 450 nm was measured using a microplate reader. […]"}, "[3]": {"tested_on": "neural stem cells", "assay": "Co-treatment amyloid-β and PEP-1: viability (MMT and CCK-8 assay)", "assay_type": "cell-based, rat", "details": "20 μM amyloid-β protein, co-treated 48 hours", "procedure": "(§2) To determine whether PEP 1 has the effect of suppressing the neurotoxicity caused by amyloid-β protein, 20 μM amyloid-β protein and various concentrations of PEP-1 were co-treated for 48 hours. The cell viability and apoptosis were measured using MMT assay, CCK-8 assay, LDH assay and TUNEL assay, and neural stem cell proliferation by BrdU assay.\n(§3) (Refer to FIG. 8). LDH assay was carried out for assessment of the degree of cell death as another method, and we confirmed that the increase in cell death by amyloid-β decreased by PEP-1, and efficacy was seen starting at 1 μM concentration (Refer to FIG. 9)."}, "[4]": {"tested_on": "neural stem cells", "assay": "Co-treatment amyloid-β and PEP-1: cell death (LDH assay)", "assay_type": "cell-based, rat", "details": "20 μM amyloid-β protein, co-treated 48 hours", "procedure": "as §2, §3"}, "[5]": {"tested_on": "GADD 153", "assay": "2D-electrophoresis protein expression in neural stem cells", "assay_type": "cell-based, rat", "details": "20 ug β-amyloid + PEP 1 treated group, versus negative control 1.0", "procedure": "(§4) Protein expression level of PEP-1 treated group and untreated group was analyzed by 2D-electrophoresis technique and antibody microarray technique. Prepared 200 μg by extracting proteome from the neural stem cells cultured in Experiment 3-1 of Example 3. In addition, the group in which PEP-1 was not treated was used as the comparison group in the same condition.\n(§5) 2D-electrophoresis was performed using 12% acrylamide gels. First gel electrophoresis was performed at PI 4˜10 N, using a gel size of 8.5×7 cm. After electrophoresis, it was dyed with Colloidal Coomassie Blue, and then compared expression by using PDQuest software to analyze each spot.\n(§6) Difference in the expression levels of more than 1.5 times was identified using MALDI-TOF MS (Matrix Desorption/Ionization Time of Flight Mass Spectromestry). Among these, proteins correlated with inflammation-related signaling, such as i-NOS and HMGB-1 were identified (Refer to Table 6). The changes in protein expression levels either increased or decreased by 1.5 times by amyloid-β protein, but it was confirmed that expression level was regulated close to that of negative control when PEP-1 was added (Refer to FIGS. 14A-14B).\n(§7) The Table 6 below is an analysis of expression levels of proteins associated with inflammation by 2D electrophoresis technique. The control group represents protein expression level of cells that were not treated with neither amyloid-β protein nor PEP-1."}, "[6]": {"tested_on": "HMGB1", "assay": "2D-electrophoresis protein expression in neural stem cells", "assay_type": "cell-based, rat", "details": "20 ug β-amyloid + PEP 1 treated group, versus negative control 1.0", "procedure": "as §4, §5, §6, §7"}, "[7]": {"tested_on": "HSP 70", "assay": "2D-electrophoresis protein expression in neural stem cells", "assay_type": "cell-based, rat", "details": "20 ug β-amyloid + PEP 1 treated group, versus negative control 1.0", "procedure": "as §4, §5, §6, §7"}, "[8]": {"tested_on": "HSP 90", "assay": "2D-electrophoresis protein expression in neural stem cells", "assay_type": "cell-based, rat", "details": "20 ug β-amyloid + PEP 1 treated group, versus negative control 1.0", "procedure": "as §4, §5, §6, §7"}, "[9]": {"tested_on": "MAP Kinase", "assay": "2D-electrophoresis protein expression in neural stem cells", "assay_type": "cell-based, rat", "details": "20 ug β-amyloid + PEP 1 treated group, versus negative control 1.0", "procedure": "as §4, §5, §6, §7"}, "[10]": {"tested_on": "e-NOS", "assay": "2D-electrophoresis protein expression in neural stem cells", "assay_type": "cell-based, rat", "details": "20 ug β-amyloid + PEP 1 treated group, versus negative control 1.0", "procedure": "as §4, §5, §6, §7"}, "[11]": {"tested_on": "i-NOS", "assay": "2D-electrophoresis protein expression in neural stem cells", "assay_type": "cell-based, rat", "details": "20 ug β-amyloid + PEP 1 treated group, versus negative control 1.0", "procedure": "as §4, §5, §6, §7"}, "[12]": {"details": "LPS 1 μg/mL, PEP 1 0.5 μg/mL, 24 hr"}, "[13]": {"details": "RAW 264.7 cells, LPS 1 μg/ml, PEP 1 5 μg/ml, 24 hr"}}, "data": [{"sequence": "EARPALLTSRLRFIPK [PEP-1]", "values": [{"measurement": "Decreased NO Expression Level (%)", "setting": "[1]; [12]", "value": 65, "unit": "%"}, {"measurement": "NO Expression Level of control (%)", "setting": "[1]; [12]", "value": 35, "unit": "%"}, {"measurement": "NO level reduced to % of the control", "setting": "[1]; co-treatment with LPS", "value": 65, "unit": "%"}, {"measurement": "cytokine IL-6 production % of control", "setting": "[2]; [13]", "value": 28, "unit": "%"}, {"measurement": "cytokine IL-6 production inhibition %", "setting": "[2]; [13]", "value": 72, "unit": "%"}, {"measurement": "decrease of proinflammatory cytokine secretion (IL-6)", "setting": "[2]; co-treatment with LPS", "value": "more than 70%"}, {"measurement": "concentration at which protection from amyloid-β neurotoxicity began", "setting": "[3]", "value": 10, "unit": "µM"}, {"measurement": "concentration of most effective protection from amyloid-β neurotoxicity", "setting": "[3]", "value": 100, "unit": "µM"}, {"measurement": "concentration at which efficacy starts (LDH)", "setting": "[4]", "value": 1, "unit": "µM"}, {"measurement": "increase in cell death by amyloid-β (LDH)", "setting": "[4]", "value": "decreased"}, {"measurement": "GADD 153 expression (fold)", "setting": "[5]", "value": 1.2, "unit": "fold"}, {"measurement": "HMGB1 expression (fold)", "setting": "[6]", "value": 2.8, "unit": "fold"}, {"measurement": "HSP 70 expression (fold)", "setting": "[7]", "value": 1.2, "unit": "fold"}, {"measurement": "HSP 90 expression (fold)", "setting": "[8]", "value": 1.0, "unit": "fold"}, {"measurement": "MAP Kinase expression (fold)", "setting": "[9]", "value": 1.0, "unit": "fold"}, {"measurement": "e-NOS expression (fold)", "setting": "[10]", "value": "−1.1", "unit": "fold"}, {"measurement": "i-NOS expression (fold)", "setting": "[11]", "value": "−1.1", "unit": "fold"}]}]}
